Values after ≈ are worked out from the molar mass of the structure shown. Values joined by “and” are separate entries in the source; they are usually repeats but may differ in a detail not shown here. Identical values can stand only once.

The results in this text go back to publication PMC8883477 (Journal of Medicinal Chemistry, 2022).

The conditions of data set [1]: DMSO-d6, 25–85 °C.
Data set [2] is described as follows: physchem. To be noted: pH 7.4.
A short description of data set [3]: physchem. Conditions: pH 7.4. This is another data set of the same source.
Data set [4] deals with Keap1 (Kelch domain = aa321–aa609) (Homo sapiens, UniProt Q14145). The experiment in a line: biochemical. To be noted: KD SPR, supplementary CSV; ISA format.

As to `CC(=O)N1CCC[C@H]1C(=O)N[C@@H]1COC(=O)c2ccccc2COC[C@H](C(=O)N(C)C)NC1=O` [Compound 6, (4R,7R)-7-((S)-1-Acetylpyrrolidine-2-carboxamido)-N,N-dimethyl-6,10-dioxo-1,3,4,5,6,7,8,10-octahydrobenzo[j][1,8]dioxa[4]azacyclododecine-4-carboxamide], in data set [1], the “Δδ/T, NHA (cysteine NH)” value is reported as 3.50 ppb/K; the “Δδ/T, NHB (serine NH)” value is 3.5 ppb/K and 3.53 ppb/K.

As to `CC(=O)N1CCC[C@H]1C(=O)N[C@@H]1COC(=O)c2cccc(-c3ccc(C(=O)O)cc3)c2CSC[C@H](C(=O)N(C)C)NC1=O` [Compound 64, 4-((4S,7R)-7-((S)-1-Acetylpyrrolidine-2-carboxamido)-4-(dimethylcarbamoyl)-6,10-dioxo-1,3,4,5,6,7,8,10-octahydrobenzo[j][1]oxa[8]thia[5]azacyclododecin-14-yl)benzoic Acid], the logD (as a rule, the decadic logarithm of the distribution of all forms, ionised or not, between an organic phase and buffer at a given pH) in data set [2] was less than -1.5. Also, the solubility – broadly, the concentration that dissolves in the medium under given conditions – in data set [3] was more than 850 µM.

As to `CC(=O)N1CCC[C@H]1C(=O)N[C@@H]1COC(=O)c2cccc(-c3cc(C)c(C(=O)O)c(C)c3)c2CSC[C@H](C(=O)N(C)C)NC1=O` [Compound 77, 4-((4S,7R)-7-((S)-1-Acetylpyrrolidine-2-carboxamido)-4-(dimethylcarbamoyl)-6,10-dioxo-1,3,4,5,6,7,8,10-octahydrobenzo[j][1]oxa[8]thia[5]azacyclododecin-14-yl)-2,6-dimethylbenzoic Acid], the logD in data set [2] was less than -1.4. Besides, in data set [3], the concentration in solution (solubility) was 965 ± 38 µM (≈ 616 µg/mL).

`CC(=O)N1CCC[C@H]1C(=O)N[C@@H]1COC(=O)c2cccc(-c3cc(F)c(C(=O)O)c(F)c3)c2CSC[C@H](C(=O)N(C)C)NC1=O` [Compound 78, 4-((4S,7R)-7-((S)-1-Acetylpyrrolidine-2-carboxamido)-4-(dimethylcarbamoyl)-6,10-dioxo-1,3,4,5,6,7,8,10-octahydrobenzo[j][1]oxa[8]thia[5]azacyclododecin-14-yl)-2,6-difluorobenzoic Acid] came in with a logD in data set [2] of less than -0.8. The same molecule gave a solubility in data set [3] of more than 1000 µM.

In the case of `COC(=O)CCC(=O)N1CCC[C@H]1C(=O)N[C@@H]1COC(=O)c2ccccc2CSC[C@H](C(=O)N(C)C)NC1=O` [Compound S3], binding in data set [4] was put at a Kd of 17.1 µM.

On to `CN(C)C(=O)[C@H]1CSCc2ccccc2C(=O)OC[C@@H](NC(=O)[C@@H]2CCCN2C(=O)c2cccn(C)c2=O)C(=O)N1` [Compound S7], for which, in data set [4], the equilibrium dissociation constant (Kd) (in general, the free concentration of one partner at which half of the binding sites on the other are occupied at equilibrium, for simple one-to-one binding) was 14.7 µM.

Consider `CN(C)C(=O)[C@H]1CSCc2ccccc2C(=O)OC[C@@H](NC(=O)[C@@H]2CCCN2C(=O)c2ccccc2NS(C)(=O)=O)C(=O)N1` [Compound S8], for which the Kd in data set [4] is 15.3 µM.

Take `CC(=O)N(CC(=O)N1CCC[C@H]1C(=O)N[C@@H]1COC(=O)c2ccccc2CSC[C@H](C(=O)N(C)C)NC1=O)c1ccccc1` [Compound S11]: in data set [4], binding was put at a Kd of 63.6 µM.

Take `CN(C)C(=O)[C@H]1CSCc2ccccc2C(=O)OC[C@@H](NC(=O)[C@@H]2CCCN2C(=O)Cc2cc3ccccc3s2)C(=O)N1` [Compound S13]: the Kd in data set [4] is 35.4 µM.

Regarding `CN(C)C(=O)[C@H]1CSCc2ccccc2C(=O)OC[C@@H](NC(=O)[C@@H]2CCCN2C(=O)Cc2cccnc2)C(=O)N1` [Compound S16], in data set [4], binding was characterised by a dissociation constant (Kd) of 51 µM.

In turn, `CN(C)C(=O)[C@H]1CSCc2ccccc2C(=O)OC[C@@H](NC(=O)[C@@H]2CCCN2C(=O)c2ccccc2-n2cnnn2)C(=O)N1` [Compound S21] had a dissociation constant (Kd) in data set [4] of 13 µM.
